Entries after “also recorded” stand apart in the source; their conditions may differ.
Key:
[1] = system: collagenolytic E. faecalis; assay: Quantitative culture of collagenolytic E. faecalis after V583-induced AL
[2] = molecular target: T1, P. aeruginosa MPAO1-P2 plasminogen activation (Homo sapiens, UniProt P00747); assay: PLG activation by P. aeruginosa; type: biochemical; settings: TY 1:1 with PBS (10 mM phosphate), or water plus 10 mM TXA, versus water alone
T1 construct: 250 nM human glu-plasminogen (Haematologic technologies); purchased Haematologic technologies
T1 sequence (P00747 20-810): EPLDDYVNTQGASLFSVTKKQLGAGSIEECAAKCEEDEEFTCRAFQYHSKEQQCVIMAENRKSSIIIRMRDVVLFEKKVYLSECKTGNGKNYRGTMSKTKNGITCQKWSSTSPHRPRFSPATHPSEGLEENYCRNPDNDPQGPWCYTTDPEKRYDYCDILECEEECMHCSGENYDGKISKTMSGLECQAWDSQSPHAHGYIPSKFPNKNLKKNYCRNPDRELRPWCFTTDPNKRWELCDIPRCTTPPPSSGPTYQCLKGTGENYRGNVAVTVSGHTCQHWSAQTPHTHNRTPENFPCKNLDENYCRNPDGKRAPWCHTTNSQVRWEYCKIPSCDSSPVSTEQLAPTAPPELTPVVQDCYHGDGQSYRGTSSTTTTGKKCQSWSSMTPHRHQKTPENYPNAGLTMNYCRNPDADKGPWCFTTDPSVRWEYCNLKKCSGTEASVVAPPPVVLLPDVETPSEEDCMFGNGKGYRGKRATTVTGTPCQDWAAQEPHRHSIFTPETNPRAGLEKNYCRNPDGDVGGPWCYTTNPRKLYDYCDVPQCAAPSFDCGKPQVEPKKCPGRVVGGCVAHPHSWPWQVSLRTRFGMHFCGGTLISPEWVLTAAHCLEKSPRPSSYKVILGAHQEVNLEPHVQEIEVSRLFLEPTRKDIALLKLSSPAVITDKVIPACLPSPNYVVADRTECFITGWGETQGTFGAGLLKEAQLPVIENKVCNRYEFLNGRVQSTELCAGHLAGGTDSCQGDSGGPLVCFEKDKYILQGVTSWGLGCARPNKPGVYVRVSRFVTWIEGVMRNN
Procedure: Plasminogen/uPA activity. Plasmin activity assays were performed as previously described with minor modifications, and fluorescence data was analyzed per the manufacturer's instructions (50′). Incubation times were optimized for bacteria at low optical density to limit internal filter effects in fluorescence-based assays. Bacteria (when included) were grown overnight in TY media. OD600 was normalized by dilution to 0.1, equivalent to 8×10^7 CFU/mL. Samples at OD 0.1 were diluted 1:10 in the final reaction through the addition of media and dissolved substrates. Bacteria were incubated with 250 nM human glu-plasminogen (Haematologic technologies) for two hours at 37° C. TXA (Fisher) was added concomitantly with PLG. A final concentration of 4 nM uPA (Biovision) or pro-uPA (Biovision) was added and incubation proceeded for 20 minutes. A final concentration of 6 M fluorogenic substrate specific for plasmin (H-D-Val-Leu-Lys-AFC, AnaSpec) was added immediately prior to a kinetic fluorescent read with excitation wavelength 380 nm and emission wavelength 500 nm. Reads were conducted every 15 to 30 seconds over the course of 30 minutes. For assays of uPA activity, PLG was omitted from the incubation and a substrate specific to uPA (Z-Gly-Gly-Arg-AMC, Bachem) was used. When assays were performed in human plasma, fluorescence was read for 120 minutes total. […]

[3] = system: FITC-labeled PLG binding to E. faecalis V583 cell surface; assay: Flow cytometric evaluation of FITC-PLG binding to E. faecalis; design: species or system Enterococcus faecalis; settings: for geometric mean fluorescence intensity of cells (surface-bound FITC-PLG): 1768 in the absence of TXA
Procedure: Flow cytometric evaluation of PLG binding. PLG binding to the bacterial surface was measured as previously described, with minor modifications (52′). Bacteria were grown overnight in TY. Cultures were diluted to a final density of roughly 8×10^6 CFU/mL. […] Cells were pelleted, washed three times with PBS, and resuspended. Fluorescence was analyzed using an Imagestream ISX flow cytometer. Enterococci were detected using log-forward and log-side scatter dot plots, and a gating region was set to exclude debris and aggregates of bacteria. Bacteria were analyzed for FITC-range fluorescence using log-scale amplification, of which the geometric mean fluorescence intensity was recorded as a measure for PLG binding. FITC-range fluorescent signal was confirmed by light and fluorescent microscopy of each event.
Flow cytometry was performed after incubation of V583 with FITC-labeled PLG as before. 80.9% of cells reached a subjectively determined threshold for surface-bound FITC-PLG. […] The effect was concentration-dependent and statistically significant (FIG. 37D).

E. faecalis = E. faecalis growth (OD600 over four hours); type: cell-based, Enterococcus faecalis; settings: TXA added to culture medium
Description: FIG. 44. […] Figures are representative of three separate experiments, each run in triplicate. Error bars indicate means±SD.

RAW macrophages = assay: Collagen degradation by RAW macrophages given RAW/E44s conditioned media; type: cell-based, murine; settings: TXA 10 mM, PLG 250 nm, MMP9 1 nM, 4 hours
Procedure: FIG. 16. […] (A), E. faecalis E44 was grown in TY media overnight, and cell-free conditioned media (E44s) was applied to RAW macrophages for 4 hours. PLG, 250 nm, was included in the reaction. […] PLG activation was measured by fluorogenic substrate cleavage. “RAW” column is naïve RAW. *p<0.05, n=6/group. (B), Conditioned media after co-interaction of macrophages with E. faecalis E44 (named RAW/E44s) was applied to naïve RAW macrophages for 4 hours. PLG, 250 nm, and MMP9, 1 nM, were in all reactions. […] “RAW+RAWs” column is naïve macrophages incubated with conditioned media of RAW macrophages (no E. faecalis E44). *p<0.05, n=6/group.
It was then tested whether macrophage collagen degradation activity is enhanced by stimulation with E. faecalis. Conditions from the above experiment (RAW/E44 s) with naïve RAW macrophages were used. PLG and MMP9 were included in the reaction. Degradation of collagen was enhanced by secreted factors produced during the co-interaction of RAW and E44s. […] Finally, to investigate the mechanism of PLG activation by E. faecalis, a parent collagenolytic strain isolated from a patient with AL (V583) was used, along with its mutant derivative (DDGelE/Spr) with secretory collagenolytic factors serine protease (Spr) and gelatinase (GelE) genetically removed. […]

NC[C@H]1CC[C@H](C(=O)O)CC1 [TXA, tranexamic acid]
collagenolytic E. faecalis in anastomotic luminal contents ([1]; POD 3, versus water enema): significantly decreased
CFU/mg collagenolytic E. faecalis in anastomotic tissue ([1]; POD 8, versus water enema): significantly fewer
collagenolytic E. faecalis in anastomotic luminal contents ([1]; POD 8, versus water enema): persisted but did not reach statistical significance
CFU/mg collagenolytic E. faecalis in anastomotic tissue ([1]; day 3, versus water enema): no difference was observed
PLG activation by P. aeruginosa [2]: significantly attenuated
PLG activation by P. aeruginosa ([2]; listed as Tranexamic acid): inhibits
geometric mean fluorescence intensity of cells (surface-bound FITC-PLG) ([3]; 2 mM TXA): 936
geometric mean fluorescence intensity of cells (surface-bound FITC-PLG) ([3]; 10 mM TXA): 77
surface binding of FITC-PLG by E. faecalis ([3]; flow cytometry and single-cell microscopy): decrease in surface binding of FITC-PLG; also recorded: Fluorescent signal was not present
bacterial growth (change in OD600 over four hours) (E. faecalis): no effect on bacterial growth
collagen degradation by macrophages given RAW/E44s conditioned media (RAW macrophages): attenuated

— patent publication US12383579B2, “Materials and methods of using an inhibitor of plasminogen activation to treat anastomotic leak” (THE UNIVERSITY OF CHICAGO, priority 2018, dated 2025)
